Data from patent US11845803B2, “Combination therapies for treatment of BCMA-related cancers and autoimmune disorders” (Fred Hutchinson Cancer Center, priority 2017, dated 2023).

What was measured:
[1] = tested on: myeloma cell lines (MM1.R, U266 and 8226); experiment: Soluble BCMA (sBCMA) in culture supernatant of myeloma cell lines with GSI, ELISA; type: cell-based, human
Protocol: (I) U266 myeloma cells were washed and plated in culture media in the presence of various concentrations of GSI RO429097 (0.01 μM, 0.1 μM and 1.0 μM). The media supernatant was harvested after 1, 3, 5 and 24 hours and assayed for soluble BCMA (sBCMA) by ELISA. […] To test the effect of GSI on BCMA shedding in MM, three different myeloma cell lines (MM1.R, U266 and 8226) were washed and plated in culture media for 24 hours in the presence of various concentrations of GSI RO429097 (0.01 μM, 0.1 μM and 1.0 μM). The media supernatant was harvested and assayed for sBCMA by ELISA. sBCMA levels decreased in the supernatant in the presence of a GSI in a dose dependent manner (FIGS. 3G & 3H). To examine the effect on soluble BCMA (sBCMA) levels over time, U266 cells were washed and plated in culture media for 1, 3, 5 and 24 hours in the presence of various concentrations of GSI RO429097 (0.01 μM, 0.1 μM and 1.0 μM). The media supernatant was harvested and assayed for soluble BCMA (sBCMA) by ELISA. […] Next, the effect of removing GSI from MM cell culture was examined. […] Finally, the viability of the tested MM cell lines was not affected by addition of 1.0 μM RO429097 to culture (FIG. 3L).

[2] = tested on: primary human myeloma tumor cells; experiment: BCMA-specific T-ChARM T cells co-cultured with primary myeloma cells in the presence of GSI (cytokines, proliferation); type: cell-based
Protocol: (A) IL-2 production by BCMA CAR-T cells (BCMA-specific T-ChARM C11 3ST-CD28 and BCMA-specific T-ChARM C11 3ST-41BB) or control CD19sh CAR (short spacer)-T cells co-cultured with primary human myeloma tumor cells for 24 hours alone or with various concentrations of GSI RO429097 (0.003 μM to 3.0 μM).
(B) IFN-γ production by BMCA T-ChARM T cells co-cultured with myeloma cells at various concentrations of RO429097.
(O) Intracellular staining showing IFN-γ production (y-axis) and CD8 expression (x-axis) by T-ChARM T cells of the present disclosure cultured with primary MM cells from 2 patients in the absence (0 μM; left panels) or presence (1 μM; right panels) of GSI RO4929097.
(P) IFN-γ production (geometric mean fluorescence intensity (gMFI)) by T-ChARM T cells of the present disclosure cultured with primary MM cells in the presence of the indicated concentration of RO4929097 (x-axis).
(Q) IFN-γ production (normalized MFI; y-axis) by T-ChARM T cells of the present disclosure cultured with primary MM cells in the presence of the indicated concentration of RO4929097 (x-axis).
(R) Proliferation of T-ChARM T cells of the present disclosure in the presence of primary MM cells that were untreated (grey shading) or treated with 1.0 μM GSI RO4929097.
To examine the effect of a GSI on CAR T cell activity against BCMA^+ multiple myeloma, IL-2 production by BCMA CAR-T cells (BCMA-specific T-ChARM C11 3ST-CD28 and BCMA-specific T-ChARM C11 3ST-41BB) or control CD19sh CAR (short spacer)-T cells was measured after co-culture with primary human myeloma tumor cells for 24 hours in media containing at various concentrations of GSI RO429097 (0.003 μM to 3.0 μM) (FIG. 4A).
Next, the effect of GSI on T cell functionality of T cells containing a BCMA-specific T-ChARM was examined.

[3] = tested on: MM cell lines; experiment: Viability of MM cell lines cultured in GSI, propidium iodide staining; type: cell-based, human; conditions: 1.0 μM in culture
Protocol: (L) Viability of indicated MM-expressing cells as measured by propidium iodide staining of cell lines cultured in 1 μM GSI.
Next, the effect of removing GSI from MM cell culture was examined. […] Finally, the viability of the tested MM cell lines was not affected by addition of 1.0 μM RO429097 to culture (FIG. 3L).

CC(C)(C(=O)NCC(F)(F)C(F)(F)F)C(=O)N[C@@H]1C(=O)Nc2ccccc2-c2ccccc21 [RO4929097]
effect of GSI on surface BCMA shedding (reversibility) ([1]; 1.0 μM GSI removed or continued): reversible inhibitory effect | sBCMA levels in supernatant ([1]; MM1.R, U266 and 8226, 24 hours, 0.01, 0.1 and 1.0 μM): decreased | GSI concentration at which BCMA release into supernatant was decreased ([1]; U266, 1, 3, 5 and 24 hours): at least 0.01 μM | soluble BCMA levels in supernatant over time ([1]; U266, 1, 3, 5 and 24 hours, 0.01, 0.1 and 1.0 μM): dose-dependent decrease | supernatant sBCMA following removal of GSI ([1]; after removal of 1.0 μM GSI vs continued GSI): increased when the GSI was removed | IL-2 production by BCMA T-ChARM T cells ([2]; 24 hours co-culture, GSI 0.003 μM to 3.0 μM): dose dependent increase | proliferation of CFSE-labeled BCMA-specific T-ChARM T cells ([2]; 3 days co-culture with primary myeloma cells): increased in a dose dependent manner | IFN-γ production and CD8 expression by co-cultured T-ChARM T cells ([2]; GSI treatment of primary myeloma tumor samples): greatly improved | IFNγ production by BCMA T-ChARM T cells ([2]; co-culture with myeloma cells, various GSI concentrations): increased | proliferation of T-ChARM T cells ([2]; primary MM cells treated with 1.0 μM GSI vs untreated): increased proliferation | GSI concentration at which effects on T-ChARM T cell IFN-γ were seen ([2]; primary myeloma tumor samples): ≥ 0.1 µM | viability of MM cell lines [3]: not affected
